Experimental data reported in article PMC5913645, “Methyl phenlactonoates are efficient strigolactone analogs with simple structure” (Journal of Experimental Botany, 2017).
Read-outs that look alike come from different tables or passages of the source.

Experiments:
S. hermonthica seeds = test: Striga hermonthica seed germination bioassay; format: in vivo; details: for EC50: Striga hermonthica, concentrations 10^–5 to 10^–12 M
Description: Parasitic weed seeds’ (S. hermonthica and P. ramosa) germination activity was studied as described previously ([Jamil et al., 2012]). Six pre-conditioned seed discs were placed in a 90 mm Petri dish containing a filter paper ring wetted with 0.9 ml sterile MilliQ water. Then 50 μl of SL analog solution (10^–5–10^–12 M) was applied on each of the six discs, for each concentration. GR24 solutions with equal concentrations and sterile MilliQ water were included as a positive and negative control, respectively. After application, seeds of S. hermonthica and P. ramosa were incubated in dark at 30 °C for 2 d and at 25 °C for 4 d, respectively. Germination (seeds with radicle emerging through the seed coat) was scored under a binocular microscope, and germination rate (%) was calculated. Statistical analyses were carried out using the statistical software package R (version 3.2.2). Dose–response curves and half-maximum effective concentrations (EC50) were calculated to determine optimum amount of MPs. The synthetic strigolactone analog GR24 was used as reference to estimate efficacy of selected compounds. EC50 and estimated response were calculated using the drc package (https://cran.r-project.org/web/packages/drc/) with a four parameter logistic curve (dose–response curve) ([Ritz and Streibig, 2005]).

OsD14 = molecular target: T1, OsD14 (Oryza sativa subsp. japonica, UniProt Q10QA5); test: Intrinsic tryptophan fluorescence assay, OsD14; format: binding, rice
T1 construct: made in house; host or cells: E. coli BL21 (DE3)
T1 sequence (Q10QA5 1-318): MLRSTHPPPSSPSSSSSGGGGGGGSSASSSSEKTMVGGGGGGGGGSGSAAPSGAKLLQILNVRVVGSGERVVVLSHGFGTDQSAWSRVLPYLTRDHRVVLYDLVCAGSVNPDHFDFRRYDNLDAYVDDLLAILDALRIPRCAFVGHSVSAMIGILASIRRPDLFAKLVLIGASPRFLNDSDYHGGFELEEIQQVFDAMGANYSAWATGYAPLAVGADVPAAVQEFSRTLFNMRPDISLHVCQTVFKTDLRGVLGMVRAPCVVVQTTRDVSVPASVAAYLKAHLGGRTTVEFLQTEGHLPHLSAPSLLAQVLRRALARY
Text: Striga hermonthica ShHTL7 cDNA was used, GenBank accession KR013127, kindly provided by Tsuyoshi Ota, The University of Tokyo, Japan. Arabidopsis D14 (AtD14) cDNA, GenBank accession AY097402, was synthesized and cloned into pUC57 (GenScript). ShHTL7 and OsD14 cDNAs were amplified by RT-PCR using the primers shown in Supplementary Table S2, digested with BamHI and XhoI, and ligated into BamHI/XhoI-digested pGEX-6P-1 expression vector (GE Healthcare). Integrity of plasmids was confirmed by sequencing (KAUST Bioscience Core Lab). The plasmids were then transformed into E. coli BL21 (DE3) cells. The cells were grown in LB broth containing ampicillin ([…]), incubated at 37 °C until OD600 of 0.6 and induced with 0.1 mM isopropyl-β-D-thiogalactopyranoside at 16 °C for 16 h. Harvested cells were resuspended in lysis buffer: 50 mM Tris–HCl (pH 8.0), 200 mM NaCl, 0.5% Tween-20 and 2 mM dithiothreitol (DTT). After sonication on ice for 10 min, the lysate was centrifuged at 75 000 g for 30 min at 4 °C. Supernatant was allowed to bind to glutathione–sepharose beads (GE Healthcare) for 2 h at 4 °C, washed 3 times with buffer (50 mM Tris-HCl (pH 8.0), 200 mM NaCl, 2 mM DTT), and eluted by cleaving the GST moiety with PreScission™ Protease (GE Healthcare) at 4 °C overnight. Eluted protein was further purified by gel filtration using a HiLoad 16/60 Superdex200 prep grade column (GE Healthcare) on an AKTA prime system (GE Healthcare) in gel filtration buffer (10 mM HEPES pH 7.5, 50 mM KCl and 2 mM DTT). Protein eluted as a sharp single peak and purity was judged by 4–15% SDS-PAGE (Bio-Rad). Purified protein was concentrated using an Amicon 10K filter unit (Merck Millipore) and stored at −80 °C until use. A similar expression and purification protocol was followed for OsD14 protein, except that OsD14 was eluted from glutathione resins using 0.2 mM reduced glutathione (Sigma-Aldrich) without cutting the GST tag.
ShHTL7/D14 tryptophans were excited at 280 nm and emission intensity was measured at 333 nm. ShHTL7/D14 (10 μM) was incubated at various dilutions (0.2, 0.4, 0.8, 1.6, 3.12, 6.25, 12.5, 25, and 50 μM) of GR24 and MPs for 30 min at room temperature before measurement. Each concentration point was measured in triplicate. Emitted fluorescence was monitored using a spectraMaxi3 plate reader (Molecular Devices) in 96-well black plates. Changes in tryptophan fluorescence intensity occur due to conformational changes in protein when it is bound to ligand; differences in fluorescence intensity were recorded and analysed. Data were normalized and dissociation coefficient (Kd) values were calculated by fitting to a binding saturation single-site model with Prism 6 (GraphPad).

Arabidopsis seedlings = test: Arabidopsis lateral root density; format: in vivo; details: 1.0 μM, 8-day-old seedlings
Description: Sterilized Arabidopsis seeds were sown on half-strength MS (with 0.5% sucrose+1% agar, 0.5 g l^−1 MES, pH 5.7) plates supplemented with GR24 or MPs (at 1.0 μM). Plates were stored at 4 °C in darkness for 3 d and then vertically grown at 22 °C in a Percival incubator under long day condition (16 h at 22 °C/8 h at 16 °C day/night, 60% relative humidity, 60–70 μmol m^−2 s^−1 white light) for 8 d. For determining the effect on lateral root density and primary root length, at least 30 seedlings were measured using ImageJ software after scanning roots.

[1] = 10 μM protein, 30 min, room temperature, read-out: Kd, OsD14

| Structure (SMILES) | EC50 (S. hermonthica seeds) [nM] | Kd (OsD14) [µM] | S. hermonthica germination rate (S. hermonthica seeds; 1.0 μM) [%] | Striga germination activity, times weaker than GR24 (S. hermonthica seeds; from EC50 values) | reduction of lateral root number/density (Arabidopsis seedlings) | Kd (OsD14; [1]) [µM] | germination activity, order among the chlorophenyl compounds (S. hermonthica seeds; species not given) |
| --- | --- | --- | --- | --- | --- | --- | --- |
| CC1=CC(OC=C2C(=O)OC3c4ccccc4CC23)OC1=O (stereo not drawn) [GR24, reference compound] | 0.091 | 4.17 ± 0.32 | – | – | – | – | – |
| COC(=O)/C(=C/OC1C=C(C)C(=O)O1)c1ccc([N+](=O)[O-])cc1 (stereo not drawn) [MP1, (E)-methyl 3-(4-methyl-5-oxo-2,5-dihydrofuran-2-yloxy)-2-(4-nitrophenyl)acrylate] | 1.5 | – | 75 | around 17 times | most efficient compound and showed an activity higher than that of GR24 | 3.52 ± 0.35 | – |
| COC(=O)/C(=C/OC1C=C(C)C(=O)O1)c1ccccc1 (stereo not drawn) [MP3, (E)-methyl 3-(4-methyl-5-oxo-2,5-dihydrofuran-2-yloxy)-2-phenylacrylate] | 87 | – | – | – | – | 7.46 ± 0.53 | – |
| COC(=O)/C(=C/OC1C=C(C)C(=O)O1)c1ccc(Cl)cc1 (stereo not drawn) [MP7] | – | – | – | – | slightly more active than GR24 | 8.74 ± 0.83 | highest germination activity with MP7 (Cl in para position) followed by MP9 (ortho position) and MP8 (meta position) |
